# Assay results reported in ChEMBL document CHEMBL5729557, “5-membered heteroaryl carboxamide compounds for treatment of HBV” (2023).
# Test: Assay Measuring Activity of Test Compounds on Viral Production from HepAD38 Cells: HepAD38 cells grown in a T-150 flask (Corning, cat #: 430825) with Growth Medium (DMEM/F12 (1:1) (Hyclone, cat #: SH30023.02), 1× Pen/Strep (Invitrogen, cat #: 15140-122), 10% FBS (Tissue Culture Biologics, cat #: 101), 250 μg/mL G418 (Alfa Aesar, cat #: J62671), 1 μg/mL Tetracycline (Teknova, cat #: T3320)) were detached with 0.25% trypsin-EDTA to (Invitrogen, cat #: 25200-056). Tetracycline-free treatment medium (15 mL DMEM/F12 (1:1) 1× Pen/step, with 2% FBS, Tet-system approved (Clontech, cat #: 631106) were then added to mix, transferred into a 50 ml conical tube (Falcon, cat #: 21008-918,) and spun at 1300 rpm for 5 min. Pelleted cells were then re-suspended/washed with 50 mL of 1×DPBS (Invitrogen, cat #: 14190-136) 2 times and 50 mL treatment medium twice. HepAD38 cells were then re-suspended with 10 mL of treatment medium, syringed and counted. Wells of 96-well clear bottom TC plate (Corning, cat #: 3904,) were seeded at 50,000 cells/well in 180 μL of treatment medium, and 20 μL of either 10% DMSO (Sigma, cat #: D4540) as controls or a 10× solution of test compounds in 10% DMSO in treatment media was added for a final compound concentration starting at 10 μM, and plates were incubated in 5% CO2 incubator at 37° C. for 5 days.Subsequently viral load production was assayed by quantitative PCR (qPCR) of the HBV core sequence. PCR reaction mixture containing forward primers HBV-f 5′-CTGTGCCTTGGGTGGCTTT-3′ (IDT DNA), Reverse primers HBV-r 5′-[…]-3′ (IDT DNA), Fluorescent TaqMan™ Probes HBV-probe 5′-FAM/AGCTCCAAA/ZEN/[…]/3IABkFQ-3′ (IDT DNA), 10 μL/well of PerfeCTa® qPCR ToughMix® (Quanta Biosciences, Cat #: 95114-05K), and 6 μL/well of DEPC water (Alfa Aesar, cat #: J62087) was prepared. […] of supernatant was added to 16 μL of the reaction mixture in a qPCR plate (Applied Biosytems, Cat #: 4309849), sealed with a film (Applied Biosystems, Cat #: 4311971), centrifuged for a few seconds, and subsequently run on an Applied Biosystems VIIA7. The PCR mixture was incubated at 45° C. for 5 min, then 95° C. for 10 min, followed by 40 cycles of 10 seconds at 95° C. and 20 seconds at 60° C. Viral load was quantified against known HBV DNA standards by using ViiA™ 7 Software. Viral load in the supernatant from wells with treated cells were compared against viral load in supernatant from DMSO control wells (>3 per plate). Cell viability assay was performed with CellTiter-Glo Luminescent Cell Viability Assay (Promega, cat #: G7573) with modification. Mixed appropriate amount of CellTiter-Glo (CTG) 1×DPBS in a 1:1 ratio, added 100 uL of the mixture to each well followed completely removal of all supernatant in each well without touching cell surface. Incubated the plate at room temperature for 10 min on an orbital shaker, and then read the plate with a plate reader (TECAN M1000 or Envision).
# Settings: HePAD38
row,SMILES,EC50
1,Cn1nc(C2CC3CC(O)(CC(=O)O)CC3C2)c(C(=O)Nc2ccc(F)c(Cl)c2)c1N (configuration not stated),< 100 nM
2,Cn1nc(C2CC3CC(O)(CSCCN4CCOCC4)CC3C2)c(C(=O)Nc2ccc(F)c(Cl)c2)c1N (configuration not stated),< 100 nM
3,Cn1nc([C@H]2CC[C@@H](c3ccccc3)C2)c(C(=O)Nc2ccc(F)c(Cl)c2)c1N,< 100 nM
4,COc1cc(-c2nccn2C)ccc1[C@@H]1CC[C@@H](c2nn(C)c(N)c2C(=O)Nc2ccc(F)c(Cl)c2)C1,< 100 nM
5,Cn1nc([C@H]2C[C@@H](c3ccccc3)C2)c(C(=O)Nc2ccc(F)c(Cl)c2)c1N,< 100 nM
6,CCOC(=O)C=C1CC2CC(c3nn(C)c(N)c3C(=O)Nc3ccc(F)c(Cl)c3)CC2C1 (configuration not stated),< 100 nM
7,Cn1nc([C@@H]2CC3CC(O)(CS(=O)(=O)C(C)(C)C)C[C@H]3C2)c(C(=O)Nc2ccc(F)c(Cl)c2)c1N (some centres not stated),< 100 nM
8,COc1cc(-c2ncc[nH]2)ccc1[C@H]1CC[C@@H](c2nn(C)c(N)c2C(=O)Nc2ccc(F)c(Cl)c2)C1,in the range around 5250 nM
9,Cn1nc([C@@H]2CC3CC(O)(CSC(C)(C)C)C[C@@H]3C2)c(C(=O)Nc2ccc(F)c(Cl)c2)c1N (some centres not stated),< 100 nM
10,Cn1nc(C2CCC(c3ccccc3)C2)c(C(=O)Nc2cc(F)c(F)c(Br)c2)c1N (configuration not stated),in the range around 300 nM
11,COc1cc(-c2nccs2)ccc1C1CCC(c2nn(C)c(N)c2C(=O)Nc2ccc(F)c(Cl)c2)C1 (configuration not stated),in the range around 5250 nM
12,CC(C)S(=O)(=O)N1CC2CC(c3nn(C)c(N)c3C(=O)Nc3ccc(F)c(Cl)c3)CC2C1 (configuration not stated),< 100 nM
13,Cn1nc([C@H]2CC3CC(=NO)C[C@@H]3C2)c(C(=O)Nc2ccc(F)c(Cl)c2)c1N (some centres not stated),< 100 nM
14,CCOC(=O)c1c(C2CCC(c3ccccc3)C2)noc1N (configuration not stated),in the range around 300 nM
15,Cn1nc(C2CC3CC(OCC(F)(F)F)CC3C2)c(C(=O)Nc2ccc(F)c(Cl)c2)c1N (configuration not stated),< 100 nM
16,Cn1nc(C2CC3CC(N4CCOCC4)CC3C2)c(C(=O)Nc2ccc(F)c(Cl)c2)c1N (configuration not stated),< 100 nM
17,Cn1nc(C2CC3CC(C(=O)O)CC3C2)c(C(=O)Nc2ccc(F)c(Cl)c2)c1N (configuration not stated),< 100 nM
18,Cn1cc(C2CC3CC(c4nn(C)c(N)c4C(=O)Nc4ccc(F)c(Cl)c4)CC3C2)cn1 (configuration not stated),< 100 nM
19,COc1cccc([C@H]2CC[C@H](c3nn(C)c(N)c3C(=O)Nc3ccc(F)c(Cl)c3)C2)c1,< 100 nM

row,SMILES,EC50
1,Cn1nc([C@@H]2CC3CC(O)(CSCC(F)(F)F)C[C@@H]3C2)c(C(=O)Nc2ccc(F)c(Cl)c2)c1N (some centres not stated),< 100 nM
2,Cn1cc([C@@H]2CC[C@H](c3nn(C)c(N)c3C(=O)Nc3ccc(F)c(Cl)c3)C2)cn1,< 100 nM
3,Cn1nc(C2CC3CC(O)(COCC(F)(F)F)CC3C2)c(C(=O)Nc2ccc(F)c(Cl)c2)c1N (configuration not stated),< 100 nM
4,Cn1nc([C@@H]2CC3CC(O)(C[S+]([O-])CC(F)(F)F)C[C@@H]3C2)c(C(=O)Nc2ccc(F)c(Cl)c2)c1N (some centres not stated),< 100 nM
5,Cn1nc([C@@H]2CC3CC(=NO)C[C@@H]3C2)c(C(=O)Nc2ccc(F)c(Cl)c2)c1N (some centres not stated),< 100 nM
6,Cn1nc([C@@H]2CC3CC(O)(CN4CCOCC4)C[C@@H]3C2)c(C(=O)Nc2ccc(F)c(Cl)c2)c1N (some centres not stated),in the range around 5250 nM
7,CC(C)OCC1(O)CC2C[C@@H](c3nn(C)c(N)c3C(=O)Nc3ccc(F)c(Cl)c3)C[C@H]2C1 (some centres not stated),in the range around 5250 nM
8,CN(C)C(=O)CC1CC2CC(c3nn(C)c(N)c3C(=O)Nc3ccc(F)c(Cl)c3)CC2C1 (configuration not stated),< 100 nM
9,Cn1nc(C2CC3CC(O)(COC(F)F)CC3C2)c(C(=O)Nc2ccc(F)c(Cl)c2)c1N (configuration not stated),< 100 nM
10,CCS(=O)(=O)C1CC2CC(c3nn(C)c(N)c3C(=O)Nc3ccc(F)c(Cl)c3)CC2C1 (configuration not stated),< 100 nM
11,Cn1nc([C@@H]2CC3CC(O)(CS(=O)(=O)CCCN4CCCCC4)C[C@H]3C2)c(C(=O)Nc2ccc(F)c(Cl)c2)c1N (some centres not stated),in the range around 300 nM
12,Nc1[nH]nc(C2CC3CC(=O)CC3C2)c1C(=O)Nc1ccc(F)c(Cl)c1 (configuration not stated),in the range around 300 nM
13,CC(=O)NC1CC2CC(c3nn(C)c(N)c3C(=O)Nc3ccc(F)c(Cl)c3)CC2C1 (configuration not stated),< 100 nM
14,CC(C)Oc1ccc(C2CCC(c3nn(C)c(N)c3C(=O)Nc3ccc(F)c(Cl)c3)C2)cc1 (configuration not stated),< 100 nM
15,Cn1nc(C2CC3CSCC3C2)c(C(=O)Nc2ccc(F)c(Cl)c2)c1N (configuration not stated),< 100 nM
16,CCS(=O)(=O)CC1(O)CC2C[C@@H](c3nn(C)c(N)c3C(=O)Nc3ccc(F)c(Cl)c3)C[C@@H]2C1 (some centres not stated),< 100 nM
17,Cn1nc([C@H]2CC3COC(=O)C[C@H]3C2)c(C(=O)Nc2ccc(F)c(Cl)c2)c1N (some centres not stated),< 100 nM
18,Cn1nc([C@@H]2CC3CC(O)(CS(=O)(=O)CCO)C[C@@H]3C2)c(C(=O)Nc2ccc(F)c(Cl)c2)c1N (some centres not stated),< 100 nM
